According to publication PMC9395446, “First-in-human phase 1/1b study to evaluate sitravatinib in patients with advanced solid tumors” (Investigational New Drugs, 2022):

Experiment: Safety in phase 1/1b study (DLTs, TRAEs, TEAEs; CTCAE v4.03)
Type: in vivo, human
Excerpt: Safety assessments included evaluation of DLTs, AEs, physical examinations, vital sign measurements, electrocardiogram recordings and laboratory tests.
A DLT was defined as a grade ≥ 4 hematologic abnormality lasting ≥ 4 days; grade 3 thrombocytopenia with clinically significant bleeding; febrile neutropenia; clinically significant grade ≥ 3 non-hematologic AEs not related to underlying malignancy; intolerable grade 2 AEs; or toxicity resulting in an inability to deliver 80% of the dose during the first treatment cycle.
The safety population included all patients who received ≥ 1 dose of sitravatinib. […] The PK evaluable population included all patients with sufficient concentration-time data for PK parameter evaluation. The modified intent-to-treat (mITT) population included all phase 1b patients who received ≥ 1 dose of study drug.

With `COCCNCc1ccc(-c2cc3nccc(Oc4ccc(NC(=O)C5(C(=O)Nc6ccc(F)cc6)CC5)cc4F)c3s2)nc1` [sitravatinib, Sitravatinib] the “Hypothyroidism TRAE, grade ≥3” value (Overall) was 0 n (%), the “Infections and infestations TEAE, any grade” value (Overall) was 74 (38.3) n (%) and the “Infections and infestations TEAE, grade ≥3” value (Overall) was 24 (12.4) n (%). The “Injury, poisoning, procedural complications TEAE, any grade” value (Overall) was 35 (18.1) n (%), the “Injury, poisoning, procedural complications TEAE, grade ≥3” value (Overall) was 2 (1.0) n (%) and the “Investigations TEAE, any grade” value (Overall) was 116 (60.1) n (%). The “Investigations TEAE, grade ≥3” value (Overall) was 36 (18.7) n (%), the “Lipase increased TEAE, any grade” value (Overall) was 26 (13.5) n (%) and the “Lipase increased TEAE, grade ≥3” value (Overall) was 14 (7.3) n (%). The “Metabolism and nutrition disorders TEAE, any grade” value (Overall) was 130 (67.4) n (%), the “Metabolism and nutrition disorders TEAE, grade ≥3” value (Overall) was 41 (21.2) n (%) and the “Musculoskeletal and connective tissue disorders TEAE, any grade” value (Overall) was 103 (53.4) n (%). For the same molecule, the “Musculoskeletal and connective tissue disorders TEAE, grade ≥3” value (Overall) was 10 (5.2) n (%), the “Nausea TEAE, any grade” value (Overall) was 81 (42.0) n (%) and the “Nausea TEAE, grade ≥3” value (Overall) was 8 (4.1) n (%). The “Nausea TRAE, any grade” value (Overall) was 58 (30.1) n (%), the “Nausea TRAE, grade ≥3” value (Overall) was 5 (2.6) n (%) and the “Neoplasms benign, malignant, unspecified TEAE, any grade” value (Overall) was 24 (12.4) n (%). For the same molecule, the “Neoplasms benign, malignant, unspecified TEAE, grade ≥3” value (Overall) was 19 (9.8) n (%), the “Nervous system disorders TEAE, any grade” value (Overall) was 92 (47.7) n (%) and the “Nervous system disorders TEAE, grade ≥3” value (Overall) was 8 (4.1) n (%). The “PPE syndrome TEAE, any grade” value (Overall) was 41 (21.2) n (%), the “PPE syndrome TEAE, grade ≥3” value (Overall) was 11 (5.7) n (%) and the “PPE syndrome TRAE, any grade” value (Overall) was 39 (20.2) n (%). For the same molecule, the “PPE syndrome TRAE, grade ≥3” value (Overall) was 11 (5.7) n (%), the “Pain in extremity TEAE, any grade” value (Overall) was 21 (10.9) n (%) and the “Pain in extremity TEAE, grade ≥3” value (Overall) was 2 (1.0) n (%). For the same molecule, the “Proteinuria TEAE, any grade” value (Overall) was 26 (13.5) n (%), the “Proteinuria TEAE, grade ≥3” value (Overall) was 2 (1.0) n (%) and the “Proteinuria TRAE, any grade” value (Overall) was 22 (11.4) n (%). For the same molecule, the “Proteinuria TRAE, grade ≥3” value (Overall) was 2 (1.0) n (%), the “Psychiatric disorders TEAE, any grade” value (Overall) was 39 (20.2) n (%) and the “Psychiatric disorders TEAE, grade ≥3” value (Overall) was 4 (2.1) n (%). For the same molecule, the “Rash TEAE, any grade” value (Overall) was 26 (13.5) n (%), the “Rash TEAE, grade ≥3” value (Overall) was 2 (1.0) n (%) and the “Rash TRAE, any grade” value (Overall) was 21 (10.9) n (%). For the same molecule, the “Rash TRAE, grade ≥3” value (Overall) was 2 (1.0) n (%), the “Renal and urinary disorders TEAE, any grade” value (Overall) was 51 (26.4) n (%) and the “Renal and urinary disorders TEAE, grade ≥3” value (Overall) was 6 (3.1) n (%). The “Respiratory, thoracic and mediastinal disorders TEAE, any grade” value (Overall) was 121 (62.7) n (%), the “Respiratory, thoracic and mediastinal disorders TEAE, grade ≥3” value (Overall) was 21 (10.9) n (%) and the “Serious TEAE” value (Overall) was 79 (40.9) n (%). The “Serious TRAE” value (Overall) was 30 (15.5) n (%), the “Skin and subcutaneous tissue disorders TEAE, any grade” value (Overall) was 109 (56.5) n (%) and the “Skin and subcutaneous tissue disorders TEAE, grade ≥3” value (Overall) was 15 (7.8) n (%). For the same molecule, the “Stomatitis TEAE, any grade” value (Overall) was 29 (15.0) n (%), the “Stomatitis TEAE, grade ≥3” value (Overall) was 2 (1.0) n (%) and the “Stomatitis TRAE, any grade” value (Overall) was 28 (14.5) n (%). For the same molecule, the “Stomatitis TRAE, grade ≥3” value (Overall) was 2 (1.0) n (%), the “TEAE grade ≥3” value (Overall) was 145 (75.1) n (%) and the “TEAE leading to death” value (Overall) was 21 (10.9) n (%). For the same molecule, the “TEAE leading to discontinuation” value (Overall) was 41 (21.2) n (%), the “TEAE leading to treatment modification” value (Overall) was 133 (68.9) n (%) and the “TRAE grade ≥3” value (Overall) was 103 (53.4) n (%). The “TRAE leading to death” value (Overall) was 1 (0.5) n (%), the “TRAE leading to discontinuation” value (Overall) was 26 (13.5) n (%) and the “TRAE leading to treatment modification” value (Overall) was 120 (62.2) n (%). The “UTI TEAE, any grade” value (Overall) was 23 (11.9) n (%), the “UTI TEAE, grade ≥3” value (Overall) was 6 (3.1) n (%) and the “Vascular disorders TEAE, any grade” value (Overall) was 106 (54.9) n (%). The “Vascular disorders TEAE, grade ≥3” value (Overall) was 50 (25.9) n (%), the “Vomiting TEAE, any grade” value (Overall) was 61 (31.6) n (%) and the “Vomiting TEAE, grade ≥3” value (Overall) was 11 (5.7) n (%). The “Vomiting TRAE, any grade” value (Overall) was 46 (23.8) n (%), the “Vomiting TRAE, grade ≥3” value (Overall) was 5 (2.6) n (%) and the “Weight decreased TEAE, any grade” value (Overall) was 42 (21.8) n (%). The “Weight decreased TEAE, grade ≥3” value (Overall) was 3 (1.6) n (%), the “Weight decreased TRAE, any grade” value (Overall) was 27 (14.0) n (%) and the “Weight decreased TRAE, grade ≥3” value (Overall) was 2 (1.0) n (%). For the same molecule, the “ALT increased TEAE, any grade” value (Phase 1) was 4 (12.5) n (%), the “ALT increased TEAE, grade ≥3” value (Phase 1) was 1 (3.1) n (%) and the “ALT increased TRAE, any grade” value (Phase 1) was 2 (6.3) n (%). The “ALT increased TRAE, grade ≥3” value (Phase 1) was 0 n (%), the “AST increased TEAE, any grade” value (Phase 1) was 5 (15.6) n (%) and the “AST increased TEAE, grade ≥3” value (Phase 1) was 1 (3.1) n (%). The “AST increased TRAE, any grade” value (Phase 1) was 2 (6.3) n (%), the “AST increased TRAE, grade ≥3” value (Phase 1) was 0 n (%) and the “Abdominal pain TEAE, any grade” value (Phase 1) was 4 (12.5) n (%). The “Abdominal pain TEAE, grade ≥3” value (Phase 1) was 1 (3.1) n (%).
